Results taken from patent US20250170252A1, “QUINONE PROTECTED FORMS AND CONJUGATES” (CAMBRIDGE ENTERPRISE LIMITED, priority 2022, published 2025).
Like-named read-outs stand apart in the source and are kept apart here. One block for each compound: values may come before it.

Key:
[1] = Glucuronide kinetics assay (release of β-lapachone after β-glucuronide deprotection); format: physicochemical
Protocol: Glucuronide prodrug (37a, b, c, d) was dissolved in DMSO to a concentration of 10 mM. A 100 mM stock solution of warfarin in DMSO was also prepared. To obtain deprotected para-hydroxybenzyl ketol species, the glucuronide stock solution was dissolved in PBS with 16.7% DMF to a concentration of 1.7 mM. 15 μL of a stock solution of R-glucuronidase from E. coli K-12 (Roche #03707580001, 140 U/mL) was added to 900 μL of this stock and incubated for 20 min at 37° C. 15 μL of a 100 mM stock of warfarin internal standard in DMSO was added. Reactions were then set up immediately. For a reaction, 30 μL of the amino-benzyl ketol/standard stock was added to 195 μL of citrate-phosphate buffer at the specified pH. Test samples were incubated at 37° C. with shaking. At the recorded time points, 20 μL aliquots of the reactions were analysed by HPLC (254 nm, Agilent 1260 Infinity). HPLC conditions: column Agilent InfinityLab Poroshell 120 SB—C18 2.7 μm, 50×4.6 mm; solvent system A=H2O+0.1% TFA, B=acetonitrile+0.1% TFA; flow=1 mL/min. Gradient: t=0-1 min 0% B, t=1-2 min 0-30% B, t=2-17 min 30-40% B, t=17-17.1 min 40-100% B, t=17.1-18 min 100% B, t=18-23 min 0% B. Relative peak area represents raw peak area (mAU*s) normalized to raw peak area of the warfarin internal standard. Values recorded are averages of three independent reactions and error bars display standard error of the mean. Values were fitted to first-order kinetics using GraphPad Prism 9 software. A positive control experiment was performed under identical conditions with known substrate 4-nitrophenyl-β-D-glucuronide (Sigma Aldrich) to confirm enzyme activity.

[2] = test system: Aspc-1 pancreatic cancer cell line; assay: CellTiter Glo viability assay, Aspc-1; format: cell-based; settings: for toxicity without the β-glucuronidase enzyme: Aspc-1, up to 100 μM; for IC50: Homo sapiens, ASPC1, 48 h
Protocol: (§1) For CellTiter Glo viability assays, 10,000 cells per well were plated on Day 1 and were allowed to adhere to the plate surface for 24 hours. Optimized concentration ranges of prodrugs were determined and made via serial dilution. […] Cells were incubated with compound for 48 hours and viability was assessed on Day 4 using the CellTiter Glo Viability assay which measures metabolically active cells by quantifying the amount of ATP present.
(§2) Panc-1 cells were obtained from Tony Kouzarides' lab in the Gurdon Institute at the University of Cambridge and put into culture at passage 10 containing DMEM media (Gibco) supplemented with 1% Pen-Strep antibiotic (Gibco), 1% L-glutamine, and 10% fetal bovine serum (FBS, sterile-filtered). Aspc-1 cells were bought commercially from the American Type Culture Collection (ATCC) and put into culture containing RPMI 1640 media (Gibco) supplemented with 1% Pen-Strep antibiotic (Gibco), 1% L-glutamine, and 20% fetal bovine serum (FBS, sterile-filtered). All cell lines were started at passage 10 and passaged every 3 days by centrifuging at 1000 rpm for 4 minutes.

[3] = test system: Panc-1 pancreatic cancer cell line; assay: CellTiter Glo viability assay, Panc-1; format: cell-based; settings: for IC50: Homo sapiens, PANC-1, 48 h; for toxicity without the β-glucuronidase enzyme: Panc-1, up to 100 μM
Protocol: as §1, §2

[4] = Penicillin-G amidase mediated kinetic analysis of elimination at physiological pH; format: physicochemical; settings: pH 7.4, 37° C.
Protocol: Stocks of 2-phenylacetyl-para-aminobenzyl ketol were made up in DMF at a concentration of 10 mM. For a reaction, 17.5 μL of ketol stock was added to 17.5 μL of a 10 mM stock of internal standard in DMF and 310 μL of PBS at pH 7.4. To initiate a reaction, 5 μL of a suspension of Penicillin-G amidase (PenG, Sigma Aldrich enzyme 76427, 5-10 U/mg) was added. In control samples 5 μL of PBS was added in place of the enzyme. Test and control samples were then incubated at 37° C. with shaking. At the recorded time points, 20 μL aliquots of the reactions were analysed by HPLC (254 nm, ThermoFisher U3000). HPLC column: Phenomenex Kinetex C18, 5 μm, 50×4.6 mm, 100 Å; flow=1 mL/min. Gradient and solvent system for assay with 2-phenylacetyl-PAB-PhQ 21: A=H2O, B=acetonitrile, t=0-1 min 0% B, t=1-10 min 0-100% B, t=10-11 min 0% B. Gradient and solvent system for assay with 2-phenylacetyl-PAB-BL 22 and 2-phenylacetyl-PAB-DN 23: A=H2O+0.1% formic acid, B=acetonitrile+0.1% formic acid, t=0-1 min 0% B, t=1-10 min 0-40% B, t=10-16 min 40-50% B, t=16.1 min 100% B, t=16.1-18 min 100% B, t=18-20 min 0% B. Peaks were identified by LCMS analysis and comparison with pure compounds. Values described represent peak area (mAU*min) divided by peak area of internal standard. Recorded values are averages of three independent reactions and error bars display standard error of the mean. Fitting was performed using GraphPad Prism 8 software. Rate and half-life measurements were calculated by consumption of intermediate para-aminobenzyl ketol and formation of product quinone.

[5] = 1H NMR kinetic analysis of elimination of PAB-PhQ; format: physicochemical; settings: 25° C., moderately acidic methanolic solution
Protocol: Kinetics of the release of PhQ 4, from PAB-PhQ 7 were monitored by ^1H NMR at 25° C. Analysis was performed in MeOD due to poor solubility of the compound in H2O. To form the active eliminating species, Boc-PAB-PhQ 6 was dissolved in dichloromethane/trifluoroacetic acid 4:1 at 0° C. and stirred for 30 min, upon which the reaction appeared complete by thin-layer chromatography. Product 7 was dried in vacuo before being dissolved in MeOD. Basicity of the solution was altered by addition of triethylamine (drops). pH was estimated using pH paper. pH values are indicative only as analysis is performed in MeOD. Elimination rates were determined from the aromatic region. Kinetics were measured by monitoring the integral of one peak, normalised to number of protons present (i.e. integral of 1H), divided by the total integral of the aromatic region (δ=6.2-8.6 ppm, i.e. integral of 12H). Analysis was performed using Mestrenova 8.0 processing software and rate constants were calculated using GraphPad Prism v8.0 software.

[6] = pH-rate aqueous kinetic analysis of fragmentation (para-aminobenzyl ketols); format: physicochemical; settings: for pH at which elimination rate peaks / half-life at 0.155 mM: citrate-phosphate buffer; for half-life at 0.155 mM: pH 7, pH 7, read-out: release t1/2 (converted)
Protocol: pH-rate analysis was performed by adaption of the PenG assay. To obtain deprotected para-aminobenzyl ketol species, 2-phenylacetyl protected ketol was dissolved in PBS with 33% DMF to a concentration of 3.3 mM. 20 μL of a stock solution of PenG was added to 600 μL of this stock and incubated for 20 min at 37° C. 20 μL of a 100 mM stock of internal standard in DMSO was added. Reactions were then set up immediately. For a reaction, 10 μL of the amino-benzyl ketol/standard stock was added to 190 μL of citrate-phosphate buffer at the specified pH to obtain an aqueous solution containing 1.8% DMSO. Test samples were incubated at 37° C. with shaking. At the recorded time points, 20 μL aliquots of the reactions were analysed by HPLC (254 nm, ThermoFisher U3000). HPLC conditions: column Phenomenex Kinetex C18 5 μm, 50×4.6 mm, 100 Å; solvent system A=H2O, B=acetonitrile; flow=1 mL/min. Gradient and solvent system for assay with PAB-PhQ 7: A=H2O, B=acetonitrile, t=0-1 min 0% B, t=1-10 min 0-100% B, t=10-11 min 0% B. Gradient and solvent system for assay with PAB-BL 10 and PAB-DN 18: A=H2O+0.1% formic acid, B=acetonitrile+0.1% formic acid, t=0-1 min 0% B, t=1-10 min 0-40% B, t=10-16 min 40-50% B, t=16.1 min 100% B, t=16.1-18 min 100% B, t=18-20 min 0% B. Values described represent peak area (mAU*min) divided by peak area of internal standard. Where necessary, peaks were deconvoluted using Origin fitting software. Recorded values are averages of three independent reactions and error bars display standard error of the mean. Values were fitted using GraphPad Prism software. Rate and half-life measurements were calculated based on disappearance of the para-aminobenzyl ketol species.

MOLM-13 = assay: Viability assay with small molecule prodrugs, Trypan Blue exclusion, MOLM-13; format: cell-based; settings: 5 μM, 24 h timepoint
Protocol: For assays assessing cytotoxicity of β-lapachone versus small molecule dipeptide prodrugs, suspension cells were plated into 24 well plates at a density of 2.5×10^5 cells/mL in 240 μL. Serial dilutions of compound were made up in PBS. 60 μL of each stock of either PBS, or compound in PBS was added to the cells to achieve the desired final concentration. After the specified incubation time, toxicity was assessed by counting of live cells using the Trypan Blue exclusion method with a Countess II Automated Cell Counter (ThermoFisher Scientific) according to the manufacturer's instructions. Cell viability was determined by division of average live cell number of treated wells by average live cell number for control wells treated with PBS only. Values recorded are the mean of three repeat wells, with error bars representing the standard error of the mean for each concentration tested. IC50 values were calculated using GraphPad Prism software.

Compound: COc1cc(O[C@@H]2O[C@H](C(=O)O)[C@@H](O)[C@H](O)[C@H]2O)ccc1CC1(O)C(=O)C2=C(OC(C)(C)CC2)c2ccccc21 (single isomer, unassigned) [Compound 37d]
release rate compared with other derivatives ([1]; pH 6-10 (FIG. 7)): orders of magnitude faster release
toxicity without the β-glucuronidase enzyme [2]: no toxicity
IC50 [2]: 2.99 µM
IC50 [3]: 0.904 µM
toxicity without the β-glucuronidase enzyme [3]: no toxicity

elimination of 7, rate kobs ([4]; intermediate 7 generated from 21): 9.72 (±2.88)×10^−6 s^−1
Compound: Nc1ccc(CC2(O)C(=O)c3ccccc3-c3ccccc32)cc1 (centres unmarked) [Compound 7, 10-(4-aminobenzyl)-10-hydroxyphenanthren-9(10H)-one]
rate of consumption of 7 (kobs) ([5]; first-order fit): 6.18±0.12×10^−5 s^−1
rate of formation of product 4 (kobs) ([5]; from 7): 6.55±0.22×10^−5 s^−1
time to complete release ([5]; release of 4 from 7): ≤ 20 h
pH at which elimination rate peaks ([6]; 37° C.): 5-6

half-life at 0.155 mM ([6]; additional repeats of the experiments): 542 days
half-life at 0.155 mM ([6]; initially reported value): 32.9 days
Compound: CC1(C)CCC2=C(O1)c1ccccc1C(O)(Cc1ccc(N)cc1)C2=O (centres unmarked) [Compound 10, 6-(4-aminobenzyl)-6-hydroxy-2,2-dimethyl-2,3,4,6-tetrahydro-5H-benzo[h]chromen-5-one]
pH at which elimination rate peaks ([6]; 37° C.): 3
release rate kobs ([6]; pH 7, initially reported value): 2.4e-07 s⁻¹
elimination resulting in formation of 1 ([6]; pH≥6 within 72 h, 37° C.): Negligible elimination

formation of PhQ 4, rate kobs ([4]; following addition of Penicillin-G amidase to 21): 1.15 (±0.66)×10^−5 s^−1
stability without added enzyme ([4]; no Penicillin-G amidase): stable
Compound: O=C(Cc1ccccc1)Nc1ccc(CC2(O)C(=O)c3ccccc3-c3ccccc32)cc1 (centres unmarked) [Compound 21, 2-Phenyl-acetyl-para-aminobenzyl phenanthrene-ketol]

Compound: CC(=O)Oc1c2c(c3ccccc3c1OC(C)=O)OC(C)(C)CC2 [Compound 29, 2,2-dimethyl-3,4-dihydro-2H-benzo[h]chromene-5,6-diyl diacetate]
toxicity to MOLM-13 (MOLM-13): complete cell death

Compound: CC1(C)CCC2=C(O1)c1ccccc1C(O)(Cc1cc(F)c(O[C@@H]3O[C@H](C(=O)O)[C@@H](O)[C@H](O)[C@H]3O)c(F)c1)C2=O (stereo partly drawn) [Compound 37b, (2S,3S,4S,5R,6S)-6-(2,6-difluoro-4-((6-hydroxy-2,2-dimethyl-5-oxo-3,4,5,6-tetrahydro-2H-benzo[h]chromen-6-yl)methyl)phenoxy)-3,4,5-trihydroxytetrahydro-2H-pyran-2-carboxylic acid]
elimination rate compared with plain PHB linker ([1]; pH 3-7 (FIG. 6)): faster
elimination rate compared with plain PHB linker 37a ([1]; pH 3-8.5 (FIG. 7)): faster
release rate of β-lapachone, kobs ([1]; pH 7, 37° C., after β-glucuronide deprotection, first experiments): 2.68e-06 s⁻¹
quinone release rate, kobs ([1]; pH 7, additional fragmentation experiments): 4.2e-06 s⁻¹
elimination rate compared with plain PHB linker ([1]; pH 8-10 (FIG. 6)): slower
elimination rate compared with plain PHB linker 37a ([1]; pH 9-10 (FIG. 7)): slower
toxicity without the β-glucuronidase enzyme [2]: no toxicity
IC50 [2]: 24.4 µM
IC50 [3]: 13.4 µM
toxicity without the β-glucuronidase enzyme [3]: no toxicity

Compound: para-Aminobenzyl dunni-ketol [Compound 18]
elimination rate compared with PAB-BL 10 ([6]; 37° C., range of pH values): very similar rate
